Assay [1] concerns the target T1, H^+ /K^+ ATPase (Oryctolagus cuniculus, UniProt P27112).
T1 construct: Rabbit gastric glands are isolated from gastric mucosa; from tissue; host or cells: isolated gastric glands from gastric mucosa of the corpus region of rabbit stomach
In words: Inhibition of 14C-aminopyrine uptake in rabbit isolated gastric glands stimulated by DBcAMP or high K+ (H+/K+ ATPase inhibition). It is filed as cell-based. Particulars: compound at 10^-4 M, % inhibition of maximum response. The protocol: Compounds of formula I were also tested for anti-secretory activity by their ability to inhibit the highly specific proton transporting enzyme H^+ /K^+ ATPase.
Potential H+/K^+ ATPase inhibitors are evaluated by a technique involving the measurement of aminopyrine accumulation in rabbit isolated gastric glands. Amino-pyrine, which is a weak base, accumulates in acid-secreting cells; therefore, uptake of aminopyrine is increased by secretagogues and an inhibitor of acid secretion will reduce the response to one or more secretagogues depending upon its site of action. Compounds which reduce the response to dibutyryl cyclic adenosine monophosphate (DBcAMP) stimulation are assumed to have an intracellular site of action, and those which reduce the response to both DBcAMP and high potassium ion concentration (K^+) are thought to have an intracellular site of action at the secretory surface of the parietal cell, involving the highly specific proton--transporting enzyme, H^+ /K^+ ATPase. The following test procedure is used:
Rabbit gastric glands are isolated from gastric mucosa from the corpus region of the stomach by a method based on one described by Berglindh T., Obrink K. J., Acta Physiol. Scand. 96, 150-159 (1976). Measurement of aminopyrine uptake is carried out using a modification of the method described by Berglindh T., Hellander H. F., Obrink K. J. (ibid, 97, 401-414, 1976).
Compounds are tested at a concentration of 10^-4 M, initially, and in some cases at lower concentrations, for their ability to inhibit ^14 C-aminopyrine uptake in gastric glands, stimulated by DBcAMP and high K^+ respectively. Results are expressed as the % inhibition of the maximum response to the secretagogue induced by the test compound. An inhibitor of H^+ /K^+ ATPase would be expected to reduce the response to both secretagogues.

Assay [2] can be described thus: Stress-induced erosion test of Senay and Levine (anti-ulcer activity). The class given is in vivo. Particulars: Dose 100 mg/kg. The protocol:
Anti-ulcer activity was determined by the stressinduced erosion test of Senay and Levine, Proc. Soc. Exp. Biol. Med., 124, 1221-3 (1967).

Setting [3] is: DBcAMP stimulation, read-out: % Inhibition to Stimulation by DBcAMP at 10^-4.
Where [4] appears, read: high K+ stimulation, read-out: % Inhibition to Stimulation by K^+ at 10^-4.

Molecules are shown by their SMILES. Read-outs that look alike come from different tables or passages of the source.

T1 sequence (P27112 whole entry): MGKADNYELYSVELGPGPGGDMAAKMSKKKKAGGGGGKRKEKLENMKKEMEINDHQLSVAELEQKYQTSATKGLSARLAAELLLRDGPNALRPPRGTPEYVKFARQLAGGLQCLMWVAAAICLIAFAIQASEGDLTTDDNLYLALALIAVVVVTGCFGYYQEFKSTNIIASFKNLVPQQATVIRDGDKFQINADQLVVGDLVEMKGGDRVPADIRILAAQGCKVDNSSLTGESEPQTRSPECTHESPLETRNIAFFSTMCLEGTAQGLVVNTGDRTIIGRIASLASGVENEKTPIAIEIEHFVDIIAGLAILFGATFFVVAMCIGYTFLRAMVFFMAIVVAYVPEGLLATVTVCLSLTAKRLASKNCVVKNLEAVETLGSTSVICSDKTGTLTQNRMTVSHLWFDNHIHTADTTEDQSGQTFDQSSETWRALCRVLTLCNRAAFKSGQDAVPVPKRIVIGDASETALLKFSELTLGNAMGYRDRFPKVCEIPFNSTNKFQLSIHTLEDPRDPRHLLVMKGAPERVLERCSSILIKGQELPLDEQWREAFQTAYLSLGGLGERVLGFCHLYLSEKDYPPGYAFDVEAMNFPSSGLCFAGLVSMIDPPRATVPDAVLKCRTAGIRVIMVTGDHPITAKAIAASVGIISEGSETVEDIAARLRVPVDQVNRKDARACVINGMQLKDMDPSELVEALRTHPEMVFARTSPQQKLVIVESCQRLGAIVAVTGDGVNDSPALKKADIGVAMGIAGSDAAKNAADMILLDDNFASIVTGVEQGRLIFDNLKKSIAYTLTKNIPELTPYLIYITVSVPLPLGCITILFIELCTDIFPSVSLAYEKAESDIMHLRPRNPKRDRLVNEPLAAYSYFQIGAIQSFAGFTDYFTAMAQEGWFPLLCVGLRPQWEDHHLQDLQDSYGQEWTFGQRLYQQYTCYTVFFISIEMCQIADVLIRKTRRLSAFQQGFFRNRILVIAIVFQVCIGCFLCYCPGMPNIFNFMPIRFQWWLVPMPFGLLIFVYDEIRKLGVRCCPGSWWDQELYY
T1 sequence (P18597 whole entry partner): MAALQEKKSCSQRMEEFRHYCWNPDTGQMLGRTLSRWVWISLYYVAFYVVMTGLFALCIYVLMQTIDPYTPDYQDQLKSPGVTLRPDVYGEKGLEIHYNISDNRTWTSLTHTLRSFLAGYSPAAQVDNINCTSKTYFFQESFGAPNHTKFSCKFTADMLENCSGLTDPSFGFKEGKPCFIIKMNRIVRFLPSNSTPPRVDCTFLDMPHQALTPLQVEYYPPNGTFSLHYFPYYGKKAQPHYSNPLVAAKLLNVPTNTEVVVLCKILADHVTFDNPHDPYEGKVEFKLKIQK

In the case of `Fc1ccccc1CSc1nc2cccc3c2n1CCC3` [Example 6, 5,6-Dihydro-2-(2-fluorophenylmethylthio)-[4H]-imidazo-[4,5,1-ij]quinoline], the inhibition at 100 µM in assay [1] (setting [3]) was found to be 40.6%; in assay [1] (setting [4]), 93%.

With `Clc1ccc(CSc2nc3cccc4c3n2CCC4)cc1` [Example 5, 2-(4-Chlorophenylmethylthio)-5,6-dihydro-[4H]-imidazo-[4,5,1-ij]quinoline], the values for the inhibition at 100 µM in assay [1] (setting [3]) and in assay [1] (setting [4]) were 53% and 109%, respectively.

For the compound `c1ccc(CSc2nc3cccc4c3n2CCC4)cc1` [Example 1, 2-Benzylthio-5,6,-dihydro-[4H]-imidazo [4,5,1-ij]-quinoline], in assay [2], the “Stress Induced Erosion (Senay & Levine) % Inhibition” value is on record as 83%. For the same compound, the inhibition at 100 µM amounted to 70% in assay [1] (setting [3]) and 111% in assay [1] (setting [4]).

Regarding `Fc1ccc(CSc2nc3cccc4c3n2CCC4)cc1` [Example 3, 5,6-Dihydro-2-(4-fluorophenylmethylthio)-[4H]-imidazo-[4,5,1,-ij]quinoline], in assay [2], the “Stress Induced Erosion (Senay & Levine) % Inhibition” value was 62%. Further, the inhibition at 100 µM in assay [1] (setting [3]) is 6.7%; in assay [1] (setting [4]), 76%.

Regarding `Clc1ccccc1CSc1nc2cccc3c2n1CCC3` [Example 4, 2-(2-Chlorophenylmethylthio)-5,6-dihydro-[4H]-imidazo-[4,5,1-ij]quinoline], the “Stress Induced Erosion (Senay & Levine) % Inhibition” value in assay [2] came out at 55%. The inhibition at 100 µM in assay [1] (setting [3]) was 32.9%; in assay [1] (setting [4]), 83.5%.

For the compound `C1=Cc2cccc3nc(SCc4ccccc4)n(c23)C1` [Example 7, 2-Benzylthio-[4H]-imidazo[4,5,1-ij]quinoline], in assay [2], the “Stress Induced Erosion (Senay & Levine) % Inhibition” value is on record as 54%. In addition, the inhibition at 100 µM in assay [1] (setting [3]) stood at 40%; in assay [1] (setting [4]) it was 63%.

Take `Clc1cccc(CSc2nc3cccc4c3n2CCC4)c1` [Example 2, 2-(3-Chlorobenzylthio)-5,6,-dihydro-[4H]-imidazo[4,5,1,-ij]quinoline]: the results for the inhibition at 100 µM in assay [1] (setting [3]) and in assay [1] (setting [4]) were 69% and 54%, respectively.

In general, inhibition refers to the relative decrease from the control value, in per cent.

The values above are taken from patent US4609655A, “Anti-ulcer imidazo-quinoline, indole and benzazepine derivatives” (John Wyeth & Brother, Ltd., priority 1983, dated 1986).
